Measured values published in EP0151577B1 (priority 1983, dated 1984).

Assays:
souris [1] = assay: Anti-stress activity: milk-induced leucocytosis; assay type: in vivo; details: 174 mg/kg i.p.; 0,1 ml de lait s.c. before treatment; lait seulement 23866 ± 214
souris [2] = assay: General pharmacological profile: spontaneous motor activity; assay type: in vivo; details: souris
Text: Activite motrice spontanée: MODIGH, K., Central and peripheral effects of 5-hydroxytryptophan on motor activity in mice. Psychopharmacologia (Berlin), 23, 48, 1972. Cadence respiratoire: […], S., and VALZELLI, L. Serotonin and cardiovascular system, Chapter 9, in "Serotonin", Elsevier Publ. Co. Amsterdam 1965.

DOPA-oxydase = assay: Inhibition in the DOPA-oxydase + DOPA system; assay type: biochemical, champignons; details: concentrations inférieures a 10-^4M; figure 1
Text: D'autres essais ont été entrepris pour mesurer l'inhibition exercée par la DF-5HTP dans le système DOPA-oxydase + DOPA, par comparaison avec la désoxyfructosérotonine (DFS). Pour ce qui concerne l'inhibition de la DOPA-oxydase, on pourra se reporter a la methode de N.H. Horowitz, M. Fling et et C. Horn "Tyrosinase", dans Methods in Enzymology Vol. XVII- A, p. 615, Editors: Tabor and Tabor, Ac. Press, 1970.
L'effet de la désoxyfructo-sérotonine (DFS) sur les Mycobacteries de la lèpre est attribue a son effet inhibiteur sur la DOPA-oxydase de M. leprae. Une DOPA-oxydase semblable, isolée de champignons, est commercialisée (SIGMA) et a servi comme modèle afin de comparer l'effet inhibiteur de la DFS et du désoxyfructo-5-hydroxytryptophane sur cette DOPA-oxydase.
La figure 1 est un graphique dans lequel on a porté en abscisses la concentration de I'agent de traitement utilise et en ordonnées les valeurs de la coloration du milieu mesurée a 540 mµ, celles-ci étant en effet representatives de la concentration en substance capable de colorer le milieu. En presence d'un inhibiteur, la formation de la coloration est empêchée. Ainsi, plus les valeurs portées en ordonnées sont faibles, meilleure est I'inhibition procurée par le compose essayé.

souris [3] = assay: Pentobarbital sleeping time; assay type: in vivo
Experimental: Les mesures ont été faites a 15, 30 et 60 minutes après I'administration par voie intrapéritonéale (i.p.) a des souris.

souris [4] = assay: Anticonvulsant activity, MES; assay type: in vivo
Text: Activite anticonvulsivante (MES): % de protection Temps de sommeil au pentobarbital: WYATT, R.J., ZARKONE, V. […], K., DEMENT, W.C., SMYDER, F. and SJOERDSMA, A., Effects of 5-Hydroxytryptophan on the sleep of normal human subjects. Electroencephaly and Clinical Neurophysiology 30, 5051971.

[5] = Solubility in water and organic solvents; assay type: physicochemical
Text: II est insoluble dans le benzene, l'acetate d'ethyle et le chloroforme.

[6] = system: réponse à l'obstruction de la carotide; assay: Cardiovascular activity: response to carotid occlusion (CO); assay type: in vivo
Text: Le protocole experimental était celui décrit dans "Sugar Derivatives of Indolamines. part V: Cardiovascular Effects and "Anti-stress" Activity of Desoxyfructose Derivative of Serotonin and 5-Metho-xy- tryptamin", L. Mester, M. Mester, K.P. Bhargava, C. Labrid, G. Dureng and M. Cheucle, THROMBOSIS […], 15,245,1979.

[7] = system: 5-HT (dans tout le cerveau); assay: Amount of serotonin (5-HT) in whole brain, spectrophotofluorometric; assay type: in vivo, souris
Text: Les quantités de sérotonine ont été estimees par une méthode spectrophotofluorométrique, telle que décrite par Solomon et al. Biochem. Pharmacology 14, 831 (1965). Les résultats de ces essais sont rassemblés dans le Tableau 10 ci-après.
• * Chaque valeur représente la moyenne de quatre animaux d'experience (souris) • ** La concentration de 5-HT est exprimée par gramme de tissu frais (cerveau).

[8] = Acute toxicity in the mouse, DL50 i.v. (Behrens-Karber); details: in vivo, iv, souris, survivors checked 15 days after administration, read-out: DL 50 i.v.
Text: D'autres études pharmacologiques ont été entreprises, en particulier pour apprécier la toxicite aigue chez la souris. Les divers produits étudiés sont administrés a doses croissantes en progression arithmetique a des lots de 5 souris femelles SWISS, EOPS, NMRI/Han pesant 23 a 24 g.
Les produits sont solubilises dans I'eau distillée. Les DL 50 sont calculées par la méthode de BEHRENS (B.) et KARBER (C.). Le nombre d'animaux survivants dans les differents lots est vérifié 15 jours après I'administration des produits. La toxicité aigue (DL 50) exprimée en g/kg est supérieure a 5, avec la voie d'administration i.v. pour le DF-5HTP un produit représentatif selon l'invention.

rat = assay: Anti-stress activity: restraint ulcer in the rat; assay type: in vivo; details: 174 mg/kg i.p.
Text: BONFILS, S., LIEFOOGHE, GK, ROSSI, G. and LAMBLING, A. L'ulcère de contrainte du Rat blanc. Modifications de la fréquence lesionnelle par différents precedes opératoires et pharmacodynamiques. C.R. Soc. Biol., 151, 1149, 1957.
BONFILS, S., ROSSI, G., LIEFOOGHE, G. and LAMBLING, A., Ulcère experimental de contrainte, I. Méthodes, fréquence des lesions, modifications par certains precedes techniques et pharmacologiques. Rev. franç. Etudes clin. biol., 4,146, 1959.

[9] = system: cellules des neuroblastomes; assay: Inhibition of serotonin incorporation into neuroblastoma cells in vitro; assay type: cell-based; details: 0°C
[10] = 100 mg/kg (ip), 15 min, Tableau 2
[11] = 10 mg par voie cérébroventriculaire

O=C(O)C(Cc1c[nH]c2ccc(O)cc12)NCC1(O)OCC(O)C(O)C1O (centres unmarked) [DF-5HTP, N-1-desoxyfructo-5-hydroxytryptophane]
Effet sur la leu-cocytose induite par le lait Moyenne T.L.C./Cmm (souris [1]): 10468 ± 130 (8) /Cmm | Activité motrice spontanée (souris [2]; 100 mg/kg (ip), Tableau 2): légère augmentation | Activité motrice spontanée (souris [2]; 174 mg/kg (ip)): augmentation | activité inhibitrice sur la DOPA-oxydase (coloration du milieu mesurée a 540 mµ) (DOPA-oxydase): comparable a celle de la DFS | Temps de sommeil au pentobarbital % du témoin (témoin =100) (souris [3]; [10]): 140 % du témoin | Temps de sommeil au pentobarbital % du témoin (témoin =100) (souris [3]; 100 mg/kg (ip), 30 min): 114 % du témoin | Temps de sommeil au pentobarbital % du témoin (témoin =100) (souris [3]; 100 mg/kg (ip), 60 min): 103 % du témoin | Temps de sommeil au pentobarbital % du témoin (témoin =100) (souris [3]; 174 mg/kg (ip), 15 min): 93 % du témoin | Temps de sommeil au pentobarbital % du témoin (témoin =100) (souris [3]; 174 mg/kg (ip), 30 min): 95 % du témoin | Temps de sommeil au pentobarbital % du témoin (témoin =100) (souris [3]; 174 mg/kg (ip), 60 min): 91 % du témoin | Activité anticon-vulsivante MES % protection (souris [4]; [10]): 0% | Activité anticon-vulsivante MES % protection (souris [4]; 100 mg/kg (ip), 30 min): 0% | Activité anticon-vulsivante MES % protection (souris [4]; 100 mg/kg (ip), 60 min): 0% | Activité anticon-vulsivante MES % protection (souris [4]; 174 mg/kg (ip), 15 min): 20% | Activité anticon-vulsivante MES % protection (souris [4]; 174 mg/kg (ip), 30 min): 20% | Activité anticon-vulsivante MES % protection (souris [4]; 174 mg/kg (ip), 60 min): 0% | solubilité dans le benzene, l'acetate d'ethyle et le chloroforme ([5]; benzene, acetate d'ethyle, chloroforme): insoluble | soluble dans I'eau ([5]; eau): facilement soluble | REPONSE CO Durée [6, 11]: 120 min | REPONSE CO Mesure à [6, 11]: 30 min | REPONSE CO Pic [6, 11]: 30 min | REPONSE CO Durée ([6]; 100 mg par voie intraveineuse): 45 min | REPONSE CO Mesure à ([6]; 100 mg par voie intraveineuse): 1 min | REPONSE CO Pic ([6]; 100 mg par voie intraveineuse): 1 min | Quantités de 5-HT (dans tout le cerveau) ([7]; 100 mg/kg i.p., 15 min., Solution Saline 60,0, mean of 4 souris): 87,5 | Quantités de 5-HT (dans tout le cerveau) ([7]; 174 mg/kg i.p., 15 min., Solution Saline 60,0, mean of 4 souris): 75,0 | Quantités de 5-HT (dans tout le cerveau) ([7]; 174 mg/kg i.p., 30 min., par gramme de tissu frais, Solution Saline 107): 200,4 | Quantités de 5-HT (dans tout le cerveau) ([7]; 174 mg/kg i.p., 60 min., par gramme de tissu frais, Solution Saline 100): 160,8 | LD50 at 360 h [8]: > 5000 mg/kg | Effet anti-ulcère chez le rat (18 heures sous contrainte) Indice d'Ul-cération (rat; témoin 34): 10^**(4) | Effet anti-ulcère chez le rat (18 heures sous contrainte) % Ul-cération (rat; témoin 90): 50% | % Inhibition à 0°C de l'incorporation de la sérotonine dans les cellules nerveuses [9]: 50%
